From paper PMC6297231 (Nature Communications, 2018)

Experiments:
OCILY19 = assay: Cell viability assay; type: cell-based; conditions: Homo sapiens, OCI-LY19, 24 h; OCILY19 (NHL); read-out: AZD5991 24h GI50
Procedure: Cells were plated at 3000 cells/well in 384-well white plates in corresponding cell growth media. […] Caspase-3/7 activation was subsequently determined using a Caspase-Glo 3/7 Reagent (Promega) and viability was assayed using the CellTiter-Glo Reagent (Promega) as described in manufacturer’s instructions. Dose–response curves for caspase-3/7 activation and viability were plotted and analyzed (including EC50 and GI50 determination) using GraphPad Prism.

SKOV3 = assay: cells; conditions: Homo sapiens, SK-OV-3, 6 h, read-out: AZD5991 6h EC50
Method in brief: (§1)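 Cells were seeded at 3000 cells/well in their respective growth media and treated with compound. Caspase-3/7 activation was read by Caspase-Glo 3/7 luminescence and viability by CellTiter-Glo; EC50 and GI50 came from dose–response curves. Caspase activation is expressed relative to a cell-kill control set at 100%.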

RPMI8226 = assay: cells; conditions: Homo sapiens, RPMI-8226, 6 h, read-out: AZD5991 6h EC50
Method in brief: as §1

H446 = assay: cells; conditions: Homo sapiens, NCI-H446, 6 h, read-out: AZD5991 6h EC50
Method in brief: as §1

TMD8 = assay: cells; conditions: Homo sapiens, TMD8, 6 h, read-out: AZD5991 6h EC50
Method in brief: as §1

H1703 = assay: cells; conditions: Homo sapiens, NCI-H1703, 6 h, read-out: AZD5991 6h EC50
Method in brief: as §1

KMS34 = assay: cells; conditions: KMS-34, 6 h, read-out: AZD5991 6h EC50
Method in brief: as §1

SKBR3 = assay: cells; conditions: Homo sapiens, SK-BR-3, 6 h, read-out: AZD5991 6h EC50
Method in brief: as §1

HCC1954 = assay: cells; conditions: Homo sapiens, HCC1954, 6 h, read-out: AZD5991 6h EC50
Method in brief: as §1

OCIAML2 = assay: cells; conditions: Homo sapiens, OCI-AML2, 6 h, read-out: AZD5991 6h EC50
Method in brief: as §1

A253 = assay: cells; conditions: Homo sapiens, A253, 6 h, read-out: AZD5991 6h EC50
Method in brief: as §1

H2126 = assay: cells; conditions: Homo sapiens, NCI-H2126, 6 h, read-out: AZD5991 6h EC50
Method in brief: as §1

SNU1197 = assay: cells; conditions: 6 h, read-out: AZD5991 6h EC50
Method in brief: as §1

H358 = assay: cells; conditions: Homo sapiens, NCI-H358, 6 h, read-out: AZD5991 6h EC50
Method in brief: as §1

MDAMB231 = assay: cells; conditions: Homo sapiens, MDA-MB-231, 6 h, read-out: AZD5991 6h EC50
Method in brief: as §1

Calu1 = assay: cells; conditions: Homo sapiens, Calu-1, 6 h, read-out: AZD5991 6h EC50
Method in brief: as §1

SKLU1 = assay: cells; conditions: Homo sapiens, SK-LU-1, 6 h, read-out: AZD5991 6h EC50
Method in brief: as §1

Colo205 = assay: cells; conditions: Homo sapiens, COLO 205, 6 h, read-out: AZD5991 6h EC50
Method in brief: as §1

NCI-H929 = assay: cells; conditions: Homo sapiens, NCI-H929, 6 h, read-out: AZD5991 6h EC50
Method in brief: as §1

KMS12PE = assay: cells; conditions: Homo sapiens, KMS-12-PE, 6 h, read-out: AZD5991 6h EC50
Method in brief: as §1

WM2664 = assay: cells; conditions: Homo sapiens, WM 266-4, 6 h, read-out: AZD5991 6h EC50
Method in brief: as §1

H345 = assay: cells; conditions: Homo sapiens, NCI-H345, 6 h, read-out: AZD5991 6h EC50
Method in brief: as §1

LnCAP = assay: cells; conditions: Homo sapiens, 6 h, read-out: AZD5991 6h EC50
Method in brief: as §1

RT4 = assay: cells; conditions: Homo sapiens, RT-4, 6 h, read-out: AZD5991 6h EC50
Method in brief: as §1

GRANTA519 = assay: cells; conditions: Homo sapiens, Granta-519, 6 h, read-out: AZD5991 6h EC50
Method in brief: as §1

DMS79 = assay: cells; conditions: Homo sapiens, DMS-79, 6 h, read-out: AZD5991 6h EC50
Method in brief: as §1

Namalwa = assay: cells; conditions: 6 h, read-out: AZD5991 6h EC50
Method in brief: as §1

PL21 = assay: cells; conditions: PL-21, 6 h, read-out: AZD5991 6h EC50
Method in brief: as §1

Z-138 = assay: cells; conditions: Homo sapiens, Z-138, 6 h, read-out: AZD5991 6h EC50
Method in brief: as §1

A101D = assay: cells; conditions: Homo sapiens, 6 h, read-out: AZD5991 6h EC50
Method in brief: as §1

U2OS = assay: cells; conditions: Homo sapiens, 6 h, read-out: AZD5991 6h EC50
Method in brief: as §1

SBC5 = assay: cells; conditions: Homo sapiens, SBC-5, 6 h, read-out: AZD5991 6h EC50
Method in brief: as §1

LK2 = assay: cells; conditions: Homo sapiens, LK-2, 6 h, read-out: AZD5991 6h EC50
Method in brief: as §1

MM1R = assay: cells; conditions: MM.1R, 6 h, read-out: AZD5991 6h EC50
Method in brief: as §1

JEKO1 = assay: cells; conditions: Homo sapiens, JeKo-1, 6 h, read-out: AZD5991 6h EC50
Method in brief: as §1

Cc1c2c(nn1C)CSCc1cc(n(C)n1)CSc1cc(c3ccccc3c1)OCCCc1c(C(=O)O)n(C)c3c-2c(Cl)ccc13 (atropisomer, axis not shown; (Ra)) [(Ra)-7]
GI50 (OCILY19): 140 nM | EC50 (SKOV3): > 30000 nM | EC50 (RPMI8226): 76 nM | EC50 (H446): > 30000 nM | EC50 (TMD8): > 30000 nM | EC50 (H1703): 801 nM | EC50 (KMS34): 240 nM | EC50 (SKBR3): > 30000 nM | EC50 (HCC1954): 682 nM | EC50 (OCIAML2): 472 nM | EC50 (A253): > 30000 nM | EC50 (H2126): 157 nM | EC50 (SNU1197): > 30000 nM | EC50 (H358): > 30000 nM | EC50 (MDAMB231): > 30000 nM | EC50 (Calu1): > 30000 nM | EC50 (SKLU1): > 30000 nM | EC50 (Colo205): 121 nM | EC50 (NCI-H929): 60 nM | EC50 (KMS12PE): 383 nM | EC50 (WM2664): > 30000 nM | EC50 (H345): > 30000 nM | EC50 (LnCAP): > 30000 nM | EC50 (RT4): 18100 nM | EC50 (GRANTA519): > 30000 nM | EC50 (DMS79): > 30000 nM | EC50 (Namalwa): 67 nM | EC50 (PL21): 409 nM | EC50 (Z-138): > 30000 nM | EC50 (A101D): 1520 nM | EC50 (U2OS): > 30000 nM | EC50 (SBC5): 1120 nM | EC50 (LK2): > 30000 nM | EC50 (MM1R): 120 nM | EC50 (JEKO1): 512 nM
